# Experimental data from US20060188576A1, “Pirenzepine ophthalmic gel” (priority 2001, published 2006).
# Counter-ions that a name gives are not always drawn. Like-named read-outs stand apart in the source and are kept apart here.
# How the values were obtained:
# [1] = Stability of pirenzepine in solution; format: physicochemical; conditions: pH 5
# [2] = solution in up to 2% strength, topical ocular, adult volunteers; cited from earlier work
# chick model of myopia = conditions: subconjunctival injections; cited from earlier work
# myopia [3] = conditions: cited from earlier work
# myopia [4] = conditions: tree shrews; cited from earlier work
# myopia [5] = conditions: stump-tailed monkeys; cited from earlier work
# myopia [6] = conditions: chicks; cited from earlier work
SMILES,stability in solution [1],comfort and systemic effects [2],axial eye growth (chick model of myopia),development of myopia (myopia [3]; humans),development of myopia (myopia [4]),development of myopia (myopia [5]),development of myopia (myopia [6]),"effectiveness as myopia therapy (myopia [3]; mild cycloplegic agent, several studies)"
"CN1CCN(CC(=O)N2c3ccccc3C(=O)Nc3cccnc32)CC1 [Pirenzepine, 5,11-dihydro-11-[(4-methyl-1-piperazinyl)acetyl]-6H pyrido [2,3-b][1,4]-benzodiazepin-6-one dihydrochloride monohydrate]",stable in solution especially at pH 5,comfortable and without systemic effects,attenuated axial eye growth,–,–,–,–,–
CN1[C@@H]2CC[C@H]1C[C@@H](OC(=O)C(CO)c1ccccc1)C2 (stereo partly drawn) [atropine],–,–,attenuated axial eye growth,prevents the development of myopia,prevents the development of myopia,prevents the development of myopia,prevents the development of myopia,–
CCN(Cc1ccncc1)C(=O)C(CO)c1ccccc1 (stereo not drawn) [tropicamide],–,–,–,–,–,–,–,effective in a number of studies but failed in other studies
